The values below come from patent US4622421A, “Phenylalkanoic acid derivatives and their use” (Sankyo Company Limited, priority 1983, dated 1986).

Structures are written as SMILES. Like-named read-outs stand apart in the source and are kept apart here.

For assay [1], the system named is carrageenin-induced inflammation (hind paw oedema). The assay can be described thus: Carrageenin oedema test for anti-inflammatory activity. Format: in vivo, Male Wistar rats. Conditions: po, read-out: Anti-inflammatory activity, ID50. On the procedure:
Male Wistar rats weighing 120-150 g were fasted overnight and then received a test compound per os as an aqueous tragacanth suspension. 30 minutes later, inflammation was induced by the subcutaneous injection of 0.05 ml of a 1% w/v carrageenin suspension into the plantar tissue of a hind paw of each rat [Winter et al., Proc. Soc. […] The anti-oedema activity was measured volumetrically, by assessing the response, as calculated from the following equation: Response=(V-Vo)/Vo where Vo and V represent, respectively, the paw volume immediately before and 3 hours after the carrageenin injection.
(Carrageenan injected into the paw causes an acute inflammation.)

In assay [2] the test system is pressure-induced pain threshold. The assay can be described thus: Pain test for analgesic activity (modified Randall and Selitto, Brewers' yeast-inflamed paw). Format: in vivo, Male Wistar-Imamichi rats. Conditions: read-out: Analgesic activity, ED50. On the procedure:
This test was conducted according to a modification of the method reported by L. O. Randall and J. J. Selitto in Arch. Int.
Male Wistar-Imamichi rats of 4 weeks of age and weighing 60-90 g were injected with 0.1 ml of a 20% by weight suspension of Brewers' yeast in the right hind paw. […] Each of these was given orally a test compound as an aqueous tragacanth suspension. 1 and 2 hours after administration of the test compound, the pain threshold was determined by observing pain responses (such as struggling or squeaking) when the inflamed or normal paw was subjected to pressure by a machine (Ugo-Basile).

Assay [3] relates to IgM antibody-producing cells in the spleen. Kind of assay: Test for immuno-regulatory activity (Cunningham's method, IgM antibody production to sheep erythrocytes). Format: in vivo, female mice of the BALB/c strain. The conditions noted are these: mouse, oral, dose from 1 to 10 mg per kg, spleen after 5 days. On the procedure: The immuno-regulatory activity of (±)-2-[4-(cis-2-hydroxycyclohexylmethyl)phenyl]propionic acid was tested by Cunningham's method [A. J. Cunningham and A. Szenberg, Immunology 14, 599 (1968)]. The test compound was administered orally to female mice of the BALB/c strain and simultaneously sheep erythrocytes were administered intraperitonially, in order to sensitise the animal to these erythrocytes as an antigen. After 5 days, the spleen of the experimental animal was extracted and the number of IgM antibody-producingcells in the spleen cells was calculated.

Where [4] appears, read: rat, per os, paw volume 3 hours after carrageenin, dose inhibiting the response by 50%.
The mark [5] stands for this setting: rat, oral, pain threshold 1 and 2 hours after administration, Litchfield and Wilcoxon.

`CC(C(=O)O)c1ccc(C[C@@H]2CCCC[C@@H]2O)cc1` (mixture of isomers) [Compound 1, (±)-2-[4-(cis-2-hydroxycyclohexylmethyl)phenyl]propionic acid]: the ED50 in assay [1] (setting [4]) worked out at 3.3 mg/kg; in assay [2] (setting [5]) it was 0.86 mg/kg. Besides, the “percent inhibition of antibody production” value in assay [3] is given as no less than 50%.

For `COc1ccc2c(c1)c(CC(=O)O)c(C)n2C(=O)c1ccc(Cl)cc1` [Compound 3, Indomethacin, reference compound], the ED50 stood at 2.2 mg/kg in assay [1] (Rattus norvegicus, 3 h) and 1.6 mg/kg in assay [2] (Rattus norvegicus, po).

On to `CC(C(=O)O)c1ccc(C[C@@H]2CCCC[C@H]2O)cc1` (mixture of isomers) [Compound 2, (±)-2-[4-(trans-2-hydroxycyclohexylmethyl)phenyl]propionic acid], for which the ED50 in assay [1] (setting [4]) was 0.96 mg/kg; in assay [2] (setting [5]), 0.76 mg/kg.
